Target: T1, KCNQ 2/3 channels (HEK293 cells stably expressing human KCNQ2 and KCNQ3 subunits) (Homo sapiens, UniProt O43525+O43526)
T1 construct: expressed in transfected cells; host or cells: HEK293
Assay: KCNQ2/3 channel activation, thallium flux FLIPR assay (BTC-AM dye)
Format: cell-based
Settings: for Emax: HEK293, maximum response relative to response of retigabine at 10 μM (set at 100%), read-out: Max. %; for EC50: HEK293 cells expressing human KCNQ2 and KCNQ3, FLIPR thallium flux
Description: The following example describes the assay that can be used to identify compounds that activate KCNQ 2/3 channels.
HEK293 cells stably expressing human KCNQ2 and KCNQ3 subunits were seeded in 96-well, black-walled, clear-bottomed, poly-D-lysine coated plates (BD Biosciences, Bedford, Mass.) at a density of 1×10^5 cells per well 24 hours before the assay. On the assay day, BTC-AM dye (Invitrogen, Carlsbad, Calif.) was loaded into the cells by replacing the cell culture medium with 100 μL/well of 4 μM dye in DPBS. Dye loading was allowed to proceed for 2 hours at room temperature and then cells were washed twice in 100 μL/well of assay buffer (in mM: 10 HEPES pH 7.3, 5 glucose, 140 Na-gluconate, 2.5 K-gluconate, 3.6 Ca-gluconate, 2 MgSO4, 0.1 Ouabain) to remove unloaded dye. Cells were incubated in 50 μL of assay buffer before loading onto a FLIPR system (Molecular Devices, Sunnyvale, Calif.). Various concentrations of compounds to be assayed were added to the cells in 50 μL of assay buffer and incubated for 4 minutes. The fluorescence signal was initiated by adding 100 μL of assay buffer containing 6 mM TlNO3 and 10 mM K2SO4. Fluors were excited using the 488-nm line of an argon laser and emission was filtered using a 540±30 nm bandpass filter. Fluorescent signals were recorded for 3 minutes. Responses over baseline values were plotted versus concentrations of test compounds to obtain an EC50 value. The maximum response for each test compound was determined relative to the response produced at 10 μM by retigabine. The maximum response of retigabine at 10 μM was set at 100%.

Row | SMILES | Emax | EC50
1 | Cc1cnc2c(CC(C)(C)C)c(NC(=O)CCC3CCCCC3)nn2c1 [Example 17, 3-cyclohexyl-N-[3-(2,2-dimethylpropyl)-6-methylpyrazolo[1,5-a]pyrimidin-2-yl]propanamide] | 267% | < 100 nM
2 | Cc1cnc2c(-c3cccc(F)c3)c(NC(=O)CC3CCCC3)nn2c1 [Example 83, 2-cyclopentyl-N-[3-(3-fluorophenyl)-6-methylpyrazolo[1,5-a]pyrimidin-2-yl]acetamide] | 139% | 100 to 500 nM
3 | Cc1cnc2c(-c3ccc(C(F)(F)F)cc3)c(NC(=O)CCc3ccccc3)nn2c1 [Example 59, N-{6-methyl-3-[4-(trifluoromethyl)phenyl]pyrazolo[1,5-a]pyrimidin-2-yl}-3-phenylpropanamide] | 123% | 100 to 500 nM
4 | O=C(Cc1cccnc1)Nc1nn2cccnc2c1-c1ccc(Cl)cc1 [Example 101, N-[3-(4-chlorophenyl)pyrazolo[1,5-a]pyrimidin-2-yl]-2-(pyridin-3-yl)acetamide] | 8% | > 10000 nM
5 | Cc1cc(C)n2nc(NC(=O)CCC3CCCC3)c(-c3ccc(Cl)cc3)c2n1 [Example 43, N-[3-(4-chlorophenyl)-5,7-dimethylpyrazolo[1,5-a]pyrimidin-2-yl]-3-cyclopentylpropanamide] | 157% | < 100 nM
6 | O=C(CCC1CCCC1)Nc1nn2cccnc2c1-c1cccc(F)c1 [Example 135, 3-cyclopentyl-N-[3-(3-fluorophenyl)pyrazolo[1,5-a]pyrimidin-2-yl]propanamide] | 143% | 100 to 500 nM
7 | Cc1ccc(-c2c(NC(=O)CC(C)(C)C)nn3c(C)ccnc23)cc1F [Example 12, N-[3-(3-fluoro-4-methylphenyl)-7-methylpyrazolo[1,5-a]pyrimidin-2-yl]-3,3-dimethylbutanamide] | 101% | 1000 to 10000 nM
8 | CC1(C)[C@H]2CC[C@@H](CC(=O)Nc3nn4cccnc4c3-c3ccc(OC(F)(F)F)cc3)[C@@H]1C2 [Example 4, 2-[(1S,2S,5S)-6,6-dimethylbicyclo[3.1.1]hept-2-yl]-N-{3-[4-(trifluoromethoxy)phenyl]pyrazolo[1,5-a]pyrimidin-2-yl}acetamide] | 73% | 500 to 1000 nM
9 | C/C=C/c1c(NC(=O)CC(C)(C)C)nn2cccnc12 [Example 167, 3,3-dimethyl-N-{3-[(1E)-prop-1-en-1-yl]pyrazolo[1,5-a]pyrimidin-2-yl}butanamide] | 98% | 1000 to 10000 nM
10 | CC(C)(C)c1c(NC(=O)CC2CCC3C2C3(Cl)Cl)nn2cccnc12 (stereo not drawn) [Example 169, N-(3-tert-butylpyrazolo[1,5-a]pyrimidin-2-yl)-2-[(cis)-6,6-dichlorobicyclo[3.1.0]hex-2-yl]acetamide] | 134% | 100 to 500 nM
11 | Cc1cnc2c(C(C)(C)C)c(NC(=O)CCC3CCCCC3)nn2c1 [Example 178, N-(3-tert-butyl-6-methylpyrazolo[1,5-a]pyrimidin-2-yl)-3-cyclohexylpropanamide] | 158% | < 100 nM
12 | O=C(CC12CC3CC(CC(C3)C1)C2)Nc1nn2cccnc2c1-c1ccc2ccccc2c1 [Example 116, 2-(adamantan-1-yl)-N-[3-(2-naphthyl)pyrazolo[1,5-a]pyrimidin-2-yl]acetamide] | 98% | 500 to 1000 nM
13 | O=C(Cc1ccncc1)Nc1nn2cccnc2c1-c1ccc(Cl)cc1 [Example 102, N-[3-(4-chlorophenyl)pyrazolo[1,5-a]pyrimidin-2-yl]-2-(pyridin-4-yl)acetamide] | 23% | > 10000 nM
14 | Cc1cc(C)n2nc(NC(=O)CCc3ccccc3)c(CC(C)(C)C)c2n1 [Example 15, N-[3-(2,2-dimethylpropyl)-5,7-dimethylpyrazolo[1,5-a]pyrimidin-2-yl]-3-phenylpropanamide] | 191% | 100 to 500 nM
15 | Cc1cc(C)n2nc(NC(=O)CCC3CCCC3)c(-c3ccccc3)c2n1 [Example 95, 3-cyclopentyl-N-(5,7-dimethyl-3-phenylpyrazolo[1,5-a]pyrimidin-2-yl)propanamide] | 167% | < 100 nM
16 | COc1cccc(CC(=O)Nc2nn3c(C)ccnc3c2CC(C)(C)C)c1 [Example 38, N-[3-(2,2-dimethylpropyl)-7-methylpyrazolo[1,5-a]pyrimidin-2-yl]-2-(3-methoxyphenyl)acetamide] | 163% | > 10000 nM

Row | SMILES | Emax | EC50
17 | CC(C)(C)c1c(NC(=O)CC2CC3CCC2C3)nn2cccnc12 (racemic) [Example 121, (±)-exo-2-bicyclo[2.2.1]hept-2-yl-N-(3-tert-butylpyrazolo[1,5-a]pyrimidin-2-yl)acetamide] | 150% | < 100 nM
18 | CC(C)(C)CC(=O)Nc1nn2cccnc2c1C(C)(C)C [Example 106, N-(3-tert-butylpyrazolo[1,5-a]pyrimidin-2-yl)-3,3-dimethylbutanamide] | 67% | 1000 to 10000 nM
19 | Cc1ccnc2c(-c3ccc(OC(F)(F)F)cc3)c(NC(=O)CC3CC4CCC3C4)nn12 (racemic) [Example 160, (±)-exo-2-bicyclo[2.2.1]hept-2-yl-N-{7-methyl-3-[4-(trifluoromethoxy)phenyl]pyrazolo[1,5-a]pyrimidin-2-yl}acetamide] | 148% | < 100 nM
20 | O=C(NCC1CCCCC1)Nc1nn2cccnc2c1-c1ccc(Cl)cc1 [Example 99, 1-[3-(4-chlorophenyl)pyrazolo[1,5-a]pyrimidin-2-yl]-3-(cyclohexylmethyl)urea] | 94% | 1000 to 10000 nM
21 | Cc1cc(C)n2nc(NC(=O)CC3CCCCC3)c(-c3ccc(Cl)cc3)c2n1 [Example 42, N-[3-(4-chlorophenyl)-5,7-dimethylpyrazolo[1,5-a]pyrimidin-2-yl]-2-cyclohexylacetamide] | 142% | 100 to 500 nM
22 | O=C(CCC1CCCC1)Nc1nn2cccnc2c1/C=C/c1ccc(C(F)(F)F)cc1 [Example 153, 3-cyclopentyl-N-(3-{(E)-2-[4-(trifluoromethyl)phenyl]vinyl}pyrazolo[1,5-a]pyrimidin-2-yl)propanamide] | 50% | > 10000 nM
23 | Cc1cc(C)n2nc(NC(=O)CCC3CCCC3)c(-c3ccc(C(F)(F)F)cc3)c2n1 [Example 61, 3-cyclopentyl-N-{5,7-dimethyl-3-[4-(trifluoromethyl)phenyl]pyrazolo[1,5-a]pyrimidin-2-yl}propanamide] | 152% | 100 to 500 nM
24 | CC(C)(C)c1c(NC(=O)Cc2cc(F)cc(F)c2)nn2cccnc12 [Example 127, N-(3-tert-butylpyrazolo[1,5-a]pyrimidin-2-yl)-2-(3,5-difluorophenyl)acetamide] | 147% | 100 to 500 nM
25 | O=C(CC12CC3CC(CC(C3)C1)C2)Nc1nn2cccnc2c1-c1ccc(Cl)cc1 [Example 162, 2-(adamantan-1-yl)-N-[3-(4-chlorophenyl)pyrazolo[1,5-a]pyrimidin-2-yl]acetamide] | 128% | 500 to 1000 nM
26 | COc1cc(CC(=O)Nc2nn3cccnc3c2-c2cccc(F)c2)cc(OC)c1 [Example 138, 2-(3,5-dimethoxyphenyl)-N-[3-(3-fluorophenyl)pyrazolo[1,5-a]pyrimidin-2-yl]acetamide] | 11% | > 10000 nM
27 | Cc1ccc(/C=C/c2c(NC(=O)CC(C)(C)C)nn3cccnc23)cn1 [Example 115, 3,3-dimethyl-N-{3-[(E)-2-(6-methylpyridin-3-yl)vinyl]pyrazolo[1,5-a]pyrimidin-2-yl}butanamide] | 10% | > 10000 nM
28 | Cc1cc(-c2c(NC(=O)Cc3ccc(F)cc3)nn3cccnc23)ccc1Cl [Example 45, N-[3-(4-chloro-3-methylphenyl)pyrazolo[1,5-a]pyrimidin-2-yl]-2-(4-fluorophenyl)acetamide] | 95% | > 10000 nM
29 | O=C(Nc1nn2cccnc2c1-c1ccc(Cl)cc1)NC1CCCCC1 [Example 108, 1-[3-(4-chlorophenyl)pyrazolo[1,5-a]pyrimidin-2-yl]-3-cyclohexylurea] | 8% | > 10000 nM
30 | O=C(CC1CC2CCC1C2)Nc1nn2cccnc2c1-c1ccc(OC(F)(F)F)cc1 (racemic) [Example 124, (±)-exo-2-bicyclo[2.2.1]hept-2-yl-N-{3-[4-(trifluoromethoxy)phenyl]pyrazolo[1,5-a]pyrimidin-2-yl}acetamide] | 130% | 100 to 500 nM
31 | Cc1ccccc1-c1c(NC(=O)CC(C)(C)C)nn2cccnc12 [Example 141, 3,3-dimethyl-N-[3-(2-methylphenyl)pyrazolo[1,5-a]pyrimidin-2-yl]butanamide] | 6% | > 10000 nM
32 | COc1cccc(CC(=O)Nc2nn3cc(C)cnc3c2-c2ccc(OC(F)(F)F)cc2)c1 [Example 8, 2-(3-methoxyphenyl)-N-{6-methyl-3-[4-(trifluoromethoxy)phenyl]pyrazolo[1,5-a]pyrimidin-2-yl}acetamide] | 140% | 500 to 1000 nM

— US8609669B2, “Potassium channel modulators” (AbbVie Inc., priority 2010, dated 2013)
